The results in this text go back to patent US20080200454A1, “CARBON-LINKED TETRAHYDRO-PYRAZOLO-PYRIDINE MODULATORS OF CATHEPSIN S” (priority 2007, published 2008).

For the experiment, the target named is Recombinant human cathepsin S (CatS) (Homo sapiens, UniProt P25774). Briefly: Recombinant human cathepsin S (CatS) inhibition assay, fluorogenic substrate Z-Valine-Valine-Arginine-AMC.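 Further: Baculovirus-expressed CatS in pH 5.0 sodium acetate buffer with DTT and NaCl, fluorescence read each minute over 20 min, inhibition derived from rate slope.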
Chain of Recombinant human cathepsin S (CatS) (P25774 115-331): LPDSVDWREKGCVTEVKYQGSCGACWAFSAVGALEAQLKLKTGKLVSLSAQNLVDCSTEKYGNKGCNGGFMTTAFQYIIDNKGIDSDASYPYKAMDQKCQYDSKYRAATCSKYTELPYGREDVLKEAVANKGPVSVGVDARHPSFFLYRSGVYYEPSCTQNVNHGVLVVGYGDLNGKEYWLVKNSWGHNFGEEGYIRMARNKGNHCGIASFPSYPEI

Like-named read-outs stand apart in the source and are kept apart here.

As for `CC1COCCN1CCCn1nc(-c2ccc(Cl)c(C#Cc3ccc(Cl)c(CNCC4CCCO4)c3)c2)c2c1CCN(C(N)=O)C2` (stereo in doubt) [Example 223, 3-{4-Chloro-3-[(4-chloro-3-{[(tetrahydrofuran-2-ylmethyl)amino]methyl}phenyl)ethynyl]phenyl}-1-{3-[(3S)-3-methylmorpholin-4-yl]propyl}-1,4,6,7-tetrahydro-5H-pyrazolo[4,3-c]pyridine-5-carboxamide], the concentration for half-maximal inhibition (IC50) was 20 nM.

As to `NC(=O)C(=O)N1CCc2c(c(-c3ccc(Cl)c(C#Cc4ccc(Cl)c(C(=O)N[C@@H](CO)c5ccccc5)c4)c3)nn2CCCN2CCSCC2)C1` [Example 564, 5-[(5-{5-[Amino(oxo)acetyl]-1-(3-thiomorpholin-4-ylpropyl)-4,5,6,7-tetrahydro-1H-pyrazolo[4,3-c]pyridin-3-yl}-2-chlorophenyl)ethynyl]-2-chloro-N-[(1R)-2-hydroxy-1-phenylethyl]benzamide], the IC50 was determined as 30 nM.

In the case of `CS(=O)(=O)N1CCc2c(c(-c3ccc(Cl)c(C#Cc4ccc(CNCc5ccc(Cl)cc5)cc4)c3)nn2CCCN2CC[S+]([O-])CC2)C1` [Example 537, 1-{4-[(2-Chloro-5-{5-(methylsulfonyl)-1-[3-(1-oxidothiomorpholin-4-yl)propyl]-4,5,6,7-tetrahydro-1H-pyrazolo[4,3-c]pyridin-3-yl}phenyl)ethynyl]phenyl}-N-[(4-chlorophenyl)methyl]methanamine], for the setting “CatS IC50”, the IC50 came out at 280 nM.

As for `CS(=O)(=O)N1CCc2c(c(-c3ccc(Cl)c(C#Cc4ccc(CNCc5ccc(Cl)cc5)cc4)c3)nn2CCCN2C[C@H]3C[C@@H]2CN3)C1` [Example 494, 1-[4-({2-Chloro-5-[1-{3-[(1R,4R)-2,5-diazabicyclo[2.2.1]hept-2-yl]propyl}-5-(methylsulfonyl)-4,5,6,7-tetrahydro-1H-pyrazolo[4,3-c]pyridin-3-yl]phenyl}ethynyl)phenyl]-N-[(4-chlorophenyl)methyl]methanamine], the IC50 (CatS IC50) amounted to 310 nM.

For the compound `C[C@H]1COC[C@H](C)N1CCCn1nc(-c2ccc(Cl)c(C#Cc3ccc(CNCc4ccc(Cl)cc4)cc3)c2)c2c1CCN(C(=O)C(N)=O)C2` [Example 157, 2-(3-{4-Chloro-3-[(4-{[(4-chlorobenzyl)amino]methyl}phenyl)ethynyl]phenyl}-1-{3-[(3S,5S)-3,5-dimethylmorpholin-4-yl]propyl}-1,4,6,7-tetrahydro-5H-pyrazolo[4,3-c]pyridin-5-yl)-2-oxoacetamide], for the setting “CatS IC50”, the IC50 is 40 nM.

As to `CS(=O)(=O)N1CCc2c(c(-c3ccc(Cl)c(C#Cc4ccc(CNCc5ccc(Cl)cc5)cc4)c3)nn2CCCN2CCSCC2)C1` [Example 183, 1-[4-({2-Chloro-5-[5-(methylsulfonyl)-1-(3-thiomorpholin-4-ylpropyl)-4,5,6,7-tetrahydro-1H-pyrazolo[4,3-c]pyridin-3-yl]phenyl}ethynyl)phenyl]-N-[(4-chlorophenyl)methyl]methanamine], where the note is “CatS IC50”, the IC50 was determined as 80 nM.

On to `CS(=O)(=O)N1CCc2c(c(-c3ccc(C(F)(F)F)c(CCc4ccc(Cl)cc4)c3)nn2CC(O)CN2CCC(N3CCCC3=O)CC2)C1` (centres unmarked) [Example 146, 1-{1-[3-(3-{3-[2-(4-Chloro-phenyl)-ethyl]-4-trifluoromethyl-phenyl}-5-methanesulfonyl-4,5,6,7-tetrahydro-pyrazolo[4,3-c]pyridin-1-yl)-2-hydroxy-propyl]-piperidin-4-yl}-pyrrolidin-2-one], for which the concentration for half-maximal inhibition (IC50) worked out at 60 nM.

For `O=C(c1ccccn1)N1CCc2c(c(-c3ccc(Cl)c(C#Cc4ccc(Cl)cc4)c3)nn2CCCN2CCOCC2)C1` [Example 137, [3-[4-Chloro-3-(4-chloro-phenylethynyl)-phenyl]-1-(3-morpholin-4-yl-propyl)-1,4,6,7-tetrahydro-pyrazolo[4,3-c]pyridin-5-yl]-pyridin-2-yl-methanone], the IC50 (CatS IC50) came to 140 nM.

As a reminder, the IC50 is the concentration that inhibits the measured activity by half.
